Measured values from the supplement of paper PMC13380429.

Key:
Settings in all cases: 72 h
HepG2 [1] = assay: cell viability relative to DMSO; higher = less toxic
Calu-3 [2] = assay: as above
Caco-2 [3] = assay: as above
U2OS [4] = assay: as above
Vero E6 [5] = assay: as above
HepG2 [6] = assay: drug sensitivity score (DSS) for viability; higher = more toxic; extreme values may be limits of the assay
Calu-3 [7] = assay: as above
Caco-2 [8] = assay: as above
U2OS [9] = assay: as above
Vero E6 [10] = assay: as above
HepG2 [11] = assay: relative viability EC50 (midpoint between 100% and the lowest measured viability); higher = less toxic
Calu-3 [12] = assay: as above
Caco-2 [13] = assay: as above
U2OS [14] = assay: as above
Vero E6 [15] = assay: as above

Structure (SMILES)	cell viability (HepG2 [1]; 1 nM)	cell viability (HepG2 [1]; 10 nM)	cell viability (HepG2 [1]; 100 nM)	cell viability (HepG2 [1]; 1000 nM)	cell viability (HepG2 [1]; 10000 nM)	cell viability (Calu-3 [2]; 1 nM)	cell viability (Calu-3 [2]; 10 nM)	cell viability (Calu-3 [2]; 100 nM)	cell viability (Calu-3 [2]; 1000 nM)	cell viability (Calu-3 [2]; 10000 nM)	cell viability (Caco-2 [3]; 1 nM)	cell viability (Caco-2 [3]; 10 nM)	cell viability (Caco-2 [3]; 100 nM)	cell viability (Caco-2 [3]; 1000 nM)	cell viability (Caco-2 [3]; 10000 nM)	cell viability (U2OS [4]; 1 nM)	cell viability (U2OS [4]; 10 nM)	cell viability (U2OS [4]; 100 nM)	cell viability (U2OS [4]; 1000 nM)	cell viability (U2OS [4]; 10000 nM)	cell viability (Vero E6 [5]; 1 nM)	cell viability (Vero E6 [5]; 10 nM)	cell viability (Vero E6 [5]; 100 nM)	cell viability (Vero E6 [5]; 1000 nM)	cell viability (Vero E6 [5]; 10000 nM)	drug sensitivity score (HepG2 [6])	drug sensitivity score (Calu-3 [7])	drug sensitivity score (Caco-2 [8])	drug sensitivity score (U2OS [9])	drug sensitivity score (Vero E6 [10])	relative viability EC50 (HepG2 [11])	relative viability EC50 (Calu-3 [12])	relative viability EC50 (Caco-2 [13])	relative viability EC50 (U2OS [14])	relative viability EC50 (Vero E6 [15])
C[C@]12COC(=O)C[C@@H]1CC[C@@H]1[C@@H]2CC[C@@]2(C)[C@H]1CC[C@]2(C)O [Oxandrolone]	102%	94.9%	104%	99.4%	90.8%	98.3%	98.4%	96.8%	103%	110%	106%	101%	100%	99.4%	106%	101%	99.4%	99.7%	102%	104%	104%	98%	98.4%	104%	98.2%	0	0	0	0	0	> 10 µM	> 10 µM	> 10 µM	> 10 µM	> 10 µM
CCN(CC)Cc1ccc2cc(COC(=O)Nc3ccc(C(=O)NO)cc3)ccc2c1 [givinostat]	99.8%	102%	80.9%	20.4%	0.1%	88.3%	94.6%	77.1%	30.8%	12.9%	97.8%	89.7%	93.2%	38.4%	0.8%	99.6%	93.2%	92.7%	30.8%	0.6%	94.7%	97.7%	96.7%	31.6%	-0.1%	17	15.6	13.1	14.3	13.8	0.327 µM	0.263 µM	0.686 µM	0.561 µM	0.653 µM
N#C[C@H](O[C@@H]1O[C@H](CO[C@@H]2O[C@H](CO)[C@@H](O)[C@H](O)[C@H]2O)[C@@H](O)[C@H](O)[C@H]1O)c1ccccc1 [amygdalin]	100%	98.8%	104%	101%	96.6%	99.2%	105%	93.3%	109%	107%	98.4%	104%	110%	92.8%	104%	96.9%	105%	100%	104%	101%	101%	103%	96%	95.5%	102%	0	0	0	0	0	> 10 µM	> 10 µM	> 10 µM	> 10 µM	> 10 µM
O=C(O)[C@H](Cc1ccccc1)NCc1ccc(Cl)cc1	95.6%	101%	97.1%	93.3%	103%	92.8%	91.5%	93.8%	98%	92.5%	107%	99.6%	106%	101%	102%	95.2%	98.7%	91%	98.3%	94.5%	99.8%	102%	92.9%	99.4%	101%	0	0	0	0	0	> 10 µM	> 10 µM	> 10 µM	> 10 µM	> 10 µM
CCOC(=O)C1=CCCC[C@H]1S(=O)(=O)Nc1ccc(F)cc1Cl [resatorvid]	104%	95.6%	109%	110%	98.6%	94.8%	104%	92.9%	111%	96.2%	98.4%	98.9%	93.6%	99%	96.1%	100%	97.7%	96.9%	99.6%	94.7%	95.2%	103%	97.6%	88.4%	98.4%	0	0	0	0	0	> 10 µM	> 10 µM	> 10 µM	> 10 µM	> 10 µM
Oc1ccc(-c2nc3cc(O)cc(Br)c3o2)cc1	107%	102%	104%	102%	95.3%	110%	99.1%	93.8%	96.9%	89.1%	100%	112%	102%	98.3%	92.1%	99.1%	105%	96.9%	109%	100%	110%	95.6%	110%	101%	98.9%	0	0	0	0	0	> 10 µM	> 10 µM	> 10 µM	> 10 µM	> 10 µM
CC(=O)OCC1=C(C(=O)O)N2C(=O)[C@@H](NC(=O)CCCC(N)C(=O)O)C2SC1 (stereo not given in full) [cephalosporin-c-zn]	103%	88.2%	81.8%	112%	102%	93.2%	104%	91.5%	97.7%	99.5%	88.7%	78%	94.1%	89.6%	99.2%	97.1%	98.1%	94.9%	92.7%	104%	93.6%	87.4%	90.9%	100%	104%	0	0	0	0	0	> 10 µM	> 10 µM	> 10 µM	> 10 µM	> 10 µM
CN1CC(O)C2=C/C(=N/NC(N)=O)C(=O)C=C21 (stereo not given) [carbazochrome]	98.8%	97%	92.2%	97.1%	93.1%	105%	95.3%	103%	93.9%	93.4%	93.3%	88.5%	91.5%	102%	109%	101%	97.6%	98.2%	92.7%	101%	101%	97%	93.9%	96.8%	103%	0	0	0	0	0	> 10 µM	> 10 µM	> 10 µM	> 10 µM	> 10 µM
CCC(=O)Nc1cccc(Oc2nc(Nc3ccc(N4CCN(C)CC4)cc3OC)ncc2Cl)c1 [WZ4003]	100%	94.3%	102%	90.9%	104%	97%	97.7%	94.8%	96.3%	82.5%	99.3%	105%	102%	99.5%	89.3%	97.3%	103%	103%	105%	102%	101%	100%	102%	96.2%	98.6%	0	0.7	0	0	0	> 10 µM	> 10 µM	> 10 µM	> 10 µM	> 10 µM
O=C(O)c1cc(O)c(O)c(O)c1 [gallic-acid]	100%	94.8%	102%	91.4%	79.6%	85.4%	93%	96.4%	102%	102%	104%	89.2%	109%	96.7%	101%	99.4%	94.8%	96.5%	97.3%	106%	99.1%	92.4%	95%	106%	102%	1.6	0	0	0	0	> 10 µM	> 10 µM	> 10 µM	> 10 µM	> 10 µM
CCC(CC)O[C@@H]1C=C(C(=O)O)C[C@H](N)[C@H]1NC(C)=O [oseltamivir-carboxylate]	104%	99.3%	108%	95.5%	115%	98.9%	98.6%	98.6%	98.2%	103%	89.8%	96.8%	99.7%	99.5%	101%	100%	99.8%	97.2%	102%	105%	98.4%	99.7%	98.1%	95.9%	104%	0	0	0	0	0	> 10 µM	> 10 µM	> 10 µM	> 10 µM	> 10 µM
O=C1CCC2CCC(=O)N12 [rolziracetam]	114%	104%	96.1%	108%	116%	91%	87%	99.1%	103%	96.3%	79.1%	112%	82.8%	98.6%	89.1%	98%	100%	101%	96.7%	102%	94.9%	105%	97.8%	102%	97.5%	0	0	0	0	0	> 10 µM	> 10 µM	> 10 µM	> 10 µM	> 10 µM
NS(=O)(=O)c1nn2cc(-c3ccccc3)nc2s1 [AEG3482]	87.5%	90.2%	93%	97%	94.6%	98%	104%	95.8%	95.1%	109%	99.9%	99%	102%	88.4%	89.4%	101%	98.1%	97.8%	99.2%	100%	97.2%	97%	96.1%	94.8%	92.1%	0	0	0.4	0	0	> 10 µM	> 10 µM	> 10 µM	> 10 µM	> 10 µM
O=[N+]([O-])c1cc2nc(O)c(O)nc2cc1[N+](=O)[O-] [DNQX]	102%	101%	95.6%	101%	102%	96.8%	96.3%	100%	97.4%	94.3%	86.4%	94.2%	97.4%	89.3%	94.4%	104%	96.8%	101%	93.6%	98%	86.8%	96.1%	89.2%	95.8%	102%	0	0	0	0	0	> 10 µM	> 10 µM	> 10 µM	> 10 µM	> 10 µM
